Experimental data from US8063242B2, “2-aryl-propionic acids and pharmaceutical compositions containing them” (Dompe PHA.R.MA S.p.A., priority 2001, dated 2011).

Key:
CXCR1 = molecular target: T1, CXCR1 (Homo sapiens, UniProt P25024); assay: IL-8 induced PMN chemotaxis test; type: cell-based; conditions: for inhibition at 1 µM: compound 10^−6 M, IL-8 induced PMN chemotaxis, IL-8 10^−9 M, read-out: % inhibition (C = 10^−6 M); for inhibition at 0.01 µM: read-out: % of inhibition IL-8 (c = 10^−8 M)
T1 construct: endogenous in cells; host or cells: human polymorphonucleate leukocytes (PMNs) from blood of healthy volunteers
T1 sequence (P25024 1-350): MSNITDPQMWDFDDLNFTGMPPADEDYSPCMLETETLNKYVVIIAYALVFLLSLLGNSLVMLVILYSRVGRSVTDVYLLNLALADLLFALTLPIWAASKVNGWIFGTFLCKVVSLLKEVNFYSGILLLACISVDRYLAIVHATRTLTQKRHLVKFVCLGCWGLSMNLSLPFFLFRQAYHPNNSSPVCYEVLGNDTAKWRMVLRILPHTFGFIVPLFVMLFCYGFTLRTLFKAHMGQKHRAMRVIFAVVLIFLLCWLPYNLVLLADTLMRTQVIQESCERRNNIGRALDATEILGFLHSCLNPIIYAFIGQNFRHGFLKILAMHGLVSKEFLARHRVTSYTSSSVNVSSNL
Method: (§1) The compounds of the invention of formula (I) were evaluated in vitro for their ability to inhibit chemotaxis of polymorphonucleate leukocytes (hereinafter referred to as PMNs) and monocytes induced by the fractions of IL-8 and GRO-α. For this purpose, in order to isolate the PMNs from heparinized human blood, taken from healthy adult volunteers, mononucleates were removed by means of sedimentation on dextran (according to the procedure disclosed by W. J. Ming et al., J. Immunol., 138, 1469, 1987) and red blood cells by a hypotonic solution. The cell vitality was calculated by exclusion with Trypan blue, whilst the ratio of the circulating polymorphonucleates was estimated on the cytocentrifugate after staining with Diff Quick.
Human recombinant IL-8 (Pepro Tech) was used as stimulating agents in the chemotaxis experiments, giving practically identical results: the lyophilized protein was dissolved in a volume of HBSS containing 0.2% bovin serum albumin (BSA) so thus to […]
(§2) During the chemotaxis assay (according to W. Falket et al., J. Immunol. Methods, 33, 239, 1980) PVP-free filters with a porosity of 5 μm and microchambers suitable for replication were used.
(§3) The compounds of the invention in formula (I) were evaluated at a concentration ranging between 10^−6 and 10^−10 M; for this purpose they were added, at the same concentration, both to the lower pores and the upper pores of the microchamber. Evaluation of the ability of the compounds of the invention of formula (I) to inhibit IL-8-induced chemotaxis of human monocytes was carried out according to the method disclosed by Van Damme J. et al. (Eur. J. Immunol., 19, 2367, 1989).

CXCR2 = molecular target: T2, CXCR2 (Homo sapiens, UniProt P25025); assay: GRO-α induced PMN chemotaxis test; type: cell-based; conditions: compound 10^−8 M, PMN chemotaxis induced by GRO-α; for inhibition at 0.01 µM: read-out: % of inhibition GRO-α (c = 10^−8 M)
T2 construct: endogenous in cells; host or cells: human polymorphonucleate leukocytes (PMNs) from blood of healthy volunteers
T2 sequence (P25025 1-360): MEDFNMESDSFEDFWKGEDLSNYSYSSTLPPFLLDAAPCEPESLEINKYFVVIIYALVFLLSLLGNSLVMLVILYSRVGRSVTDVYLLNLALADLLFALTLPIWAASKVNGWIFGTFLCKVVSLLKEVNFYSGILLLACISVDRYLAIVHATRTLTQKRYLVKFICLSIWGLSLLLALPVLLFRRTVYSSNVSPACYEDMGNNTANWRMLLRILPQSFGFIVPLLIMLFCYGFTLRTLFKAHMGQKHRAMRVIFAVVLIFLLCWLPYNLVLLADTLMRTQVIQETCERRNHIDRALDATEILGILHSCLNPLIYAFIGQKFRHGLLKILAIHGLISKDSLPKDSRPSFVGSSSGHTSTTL
Method: as §1, §2, §3
In the table below, biological activities of compounds showing high potency in the inhibition of PMN chemotaxis induced as by IL-8 as by the selective CXCR2 agonist GRO-α are reported.

[1] = compound 10^−8 M, PMN chemotaxis induced by IL-8

| SMILES | inhibition at 1 µM (CXCR1) | inhibition at 0.01 µM (CXCR1; [1]) | inhibition at 0.01 µM (CXCR2) | further results |
| --- | --- | --- | --- | --- |
| CCC(CC)c1cccc(C(C)C(=O)O)c1 (racemic) [Example 6, (R,S) 2-[3′-(alpha-ethyl-propyl)phenyl]propionic acid] | 58 ± 2% | – | – | – |
| CC(C(=O)O)c1ccccc1Nc1c(Cl)cccc1Cl (racemic) [Example 18, (R,S) 2-[2′-(2″,6″-dichlorophenyl)aminophenylpropionic acid] | 52 ± 3% | – | – | – |
| CC(C(=O)O)c1ccccc1Oc1c(Cl)cccc1Cl (racemic) [Example 25, (R,S) 2-[2′-(2″,6″-dichloro)phenoxy]phenylpropionic acid] | 41 ± 9% | – | – | – |
| CC(C)c1cccc(C(C)C(=O)O)c1 (stereo not drawn) [Example 5, 2-[(3′-isopropyl)phenyl]propionic acid] | 51 ± 12% | – | – | – |
| CC(C(=O)O)c1cccc(C(C)c2ccccc2)c1 (stereo not drawn) [Example 7] | 54 ± 4% | – | – | – |
| CC(C)c1cccc([C@@H](C)C(=O)O)c1 [Example 10, (R)-2-[(3′-isopropyl)phenyl]-propionic acid] | 43 ± 18% | – | – | – |
| CC(C)c1cccc([C@H](C)C(=O)O)c1 [Example 14, (S)-2-[(3′-isopropyl)phenyl]-propionic acid] | 50 ± 9% | – | – | – |
| CC(O)c1cccc(C(C)C(=O)O)c1 [Example 16, (R,S), (R,S) 2-[3′-(alpha-hydroxy-ethyl)phenyl]propionic acid] | 57 ± 6% | – | – | – |
| C[C@@H](C(=O)O)c1ccccc1Nc1c(Cl)cccc1Cl [Example 19] | 46 ± 14% | – | – | – |
| C[C@H](C(=O)O)c1ccccc1Nc1c(Cl)cccc1Cl [Example 20] | 50 ± 7% | – | – | – |
| C[C@@H](C(=O)O)c1ccc(NS(=O)(=O)c2ccccc2)cc1 [Example 27] | – | – | – | % of inhibition IL-8 (c = 10^−8 M) (CXCR1; [1]): 49 ± 11%; % of inhibition GRO-α (c = 10^−8 M) (CXCR2): 33 ± 11+ % |
| C[C@@H](C(=O)O)c1ccc(NS(C)(=O)=O)cc1 [Example 28, (R) 2-(4′-methanesulfonylamino)phenylpropionic acid] | – | 25 ± 7% | 32 ± 5% | – |
| CC(C)S(=O)(=O)Nc1ccc([C@@H](C)C(=O)O)cc1 [Example 29, (R) 2-[4′-(2″-propane)sulfonylamino]phenylpropionic acid] | – | 54 ± 14% | 44 ± 12% | – |
| C[C@@H](C(=O)O)c1ccc(NS(=O)(=O)C(F)(F)F)cc1 [Example 30, (R) 2-(4′-trifluoromethanesulfonylamino)phenylpropionic acid] | – | 8 ± 10% | 40 ± 14% | – |
| C[C@@H](C(=O)O)c1ccc(NS(=O)(=O)Cc2ccccc2)cc1 [Example 31, (R) 2-(4′-benzylsulfonylamino)phenylpropionic acid] | – | 60 ± 10% | 24 ± 8% | – |
| C[C@@H](C(=O)O)c1ccc(NS(=O)(=O)c2ccccc2Cl)cc1 [Example 32, (R) 2-[4′-(2″-chloro)benzenesulfonylamino]phenylpropionic acid] | – | -2 ± 10% | 66 ± 10% | – |
| CCc1ccccc1S(=O)(=O)Nc1ccc([C@@H](C)C(=O)O)cc1 [Example 33, (R) 2-[4′-(2″-ethyl)benzenesulfonylamino]phenylpropionic acid] | – | 44 ± 14% | 80 ± 10% | – |
| C[C@@H](C(=O)O)c1ccc(NS(N)(=O)=O)cc1 [Example 34, (R) 2-(4′-aminosulfonylamino)phenylpropionic acid] | – | 55 ± 10% | 2 ± 5% | – |
| C[C@@H](C(=O)O)c1ccc(OS(=O)(=O)Cc2ccccc2)cc1 [Example 36, (R) 2-(4′-benzylsulfonyloxy)phenylpropionic acid] | – | 59 ± 11% | 25 ± 11% | – |
| C[C@@H](C(=O)O)c1ccc(OS(=O)(=O)C(F)(F)F)cc1 [Example 37, (R) 2-(4′-trifluoromethanesulfonyloxy)phenylpropionic acid] | – | 62 ± 7% | 59 ± 10% | – |
| CC(C)S(=O)(=O)Oc1ccc([C@@H](C)C(=O)O)cc1 [Example 38, (R) 2-[4′-(2″-propane)sulfonyloxy]phenylpropionic acid] | – | 49 ± 8% | 46 ± 6% | – |
| C[C@@H](C(=O)O)c1ccc(OS(=O)(=O)c2ccccc2Cl)cc1 [Example 39, (R) 2-[4′-(2″-chloro)benzenesulfonyloxy]phenylpropionic acid] | – | 25 ± 7% | 65 ± 10% | – |
| CCc1ccccc1S(=O)(=O)Oc1ccc([C@@H](C)C(=O)O)cc1 [Example 40, (R) 2-[4′-(2″-ethyl)benzenesulfonyloxy]phenylpropionic acid] | – | 45 ± 13% | 70 ± 10% | – |
| C[C@@H](C(=O)O)c1ccc(OS(N)(=O)=O)cc1 [Example 41, (R) 2-(4′-aminosulfonyloxy)phenylpropionic acid] | – | 65 ± 10% | 5 ± 7% | – |
| C[C@@H](C(=O)O)c1ccc(CS(=O)(=O)c2ccccc2)cc1 [Example 42, (R) 2-(4′-benzenesulfonylmethyl)phenylpropionic acid] | – | 60 ± 7% | 52 ± 5% | – |
| C[C@@H](C(=O)O)c1ccc(CS(=O)(=O)C(F)(F)F)cc1 [Example 43, (R) 2-(4′-trifluoromethanesulfonylmethyl)phenylpropionic acid] | – | 48 ± 7% | 45 ± 7% | – |
